In patent US20220073536A1 (Rigel Pharmaceuticals, Inc., priority 2003, published 2022):

How the values were obtained:
[1] = tested on: cultured human mast cells (CHMC); test: CHMC low cell density IgE activation: tryptase assay; format: cell-based; settings: low cell density, IgE activation
Summary of the method: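 Tryptase release was read from supernatant with a fluorogenic substrate (30 min, room temperature) after anti-IgE challenge of cultured human mast cells (1000–1500 cells/well, low density) for 30 minutes at 37° C.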

[2] = tested on: cultured human mast cells (CHMC); test: CHMC low cell density ionomycin activation: tryptase assay; format: cell-based; settings: low cell density, 3 pt, read-out: LD Tryptase, CHMC, Iono, 3 pt
[3] = Homo sapiens, Mast cell, 3 pt, read-out: LD Tryptase, CHMC, IgE, 3 pt
[4] = Homo sapiens, Mast cell, 8 pt, read-out: LD Tryptase, CHMC, IgE, 8 pt
[5] = 3 pt, read-out: LD Tryptase, CHMC, IgE, 3 pt
[6] = 8 pt, read-out: LD Tryptase, CHMC, IgE, 8 pt

With CNC(=O)c1ccc(Nc2ncc(F)c(Nc3ccc4c(c3)OCCO4)n2)cc1Cl [Compound 463] the IC50 [1, 3] was less than 10 µM, the IC50 [1, 4] was less than 10 µM and the IC50 ([2]; Homo sapiens, Mast cell) was greater than 10 µM.
With CNC(=O)c1ccc(Nc2ncc(F)c(Nc3ccc(OC)c(OC)c3)n2)cc1Cl [Compound 464, N2-[3-Chloro-4-(N-methylamino)carbonylphenyl]-N4-(3,4-dimethoxyphenyl)-5-fluoro-2,4-pyrimidinediamine] the IC50 [1, 3] was less than 10 µM and the IC50 ([2]; Homo sapiens, Mast cell) was greater than 10 µM.
For CNC(=O)c1ccc(Nc2ncc(F)c(Nc3cc(OC)cc(OC)c3)n2)cc1Cl [Compound 465], the IC50 [1, 3] was less than 10 µM and the IC50 ([2]; Homo sapiens, Mast cell) was greater than 10 µM.
Work on CNC(=O)c1ccc(Nc2ncc(F)c(Nc3ccc(OC)c(Cl)c3)n2)cc1Cl [Compound 466] yielded an IC50 [1, 3] of less than 10 µM, an IC50 [1, 4] of less than 10 µM and an IC50 ([2]; Homo sapiens, Mast cell) greater than 10 µM.
Molecule CCOC(=O)C(C)(C)Oc1ccc(Nc2nc(Nc3ccc(C(=O)NC)c(Cl)c3)ncc2F)cc1Cl [Compound 467, N4-[3-Chloro-4-(ethoxycarbonyl-1,1-dimethylmethyleneoxy)phenyl]-N2-[3-chloro-4-(N-methylamino)carbonylphenyl]-5-fluoro-2,4-pyrimidinediamine] has an IC50 [1, 5] of less than 10 µM, an IC50 [1, 6] of less than 10 µM and an IC50 [2] of less than 10 µM.
For CNC(=O)c1ccc(Nc2ncc(F)c(Nc3cccc(O)c3)n2)cc1Cl [Compound 468], the IC50 [1, 3] was less than 10 µM, the IC50 [1, 4] was less than 10 µM and the IC50 ([2]; Homo sapiens, Mast cell) was greater than 10 µM.
For CN(c1ccc2c(c1)OCCO2)c1nc(NCCO)ncc1F [Compound 469, N4-(3,4-Ethylenedioxyphenyl)-5-fluoro-N2-(2-hydroxyethyl)-N4-methyl-2,4-pyrimidinediamine], the IC50 [1, 3] was greater than 10 µM and the IC50 ([2]; Homo sapiens, Mast cell) was greater than 10 µM.
Molecule CCOC(=O)C(C)(C)Oc1ccc(N(C)c2nc(Cl)ncc2F)cc1Cl [Compound 470, 2-Chloro-N4-[3-chloro-4-(ethoxycarbonyl-1,1-dimethylmethyleneoxy)phenyl]-5-fluoro-N4-methyl-4-pyrimidineamine] has an IC50 [1, 5] greater than 10 µM and an IC50 [2] of less than 10 µM.
Work on CC(C)Nc1ncc(F)c(N(C)c2ccc3c(c2)OCCO3)n1 [Compound 471, N4-(3,4-Ethylenedioxyphenyl)-5-fluoro-N2-isopropyl-N4-methyl-2,4-pyrimidinediamine] yielded an IC50 [1, 3] greater than 10 µM and an IC50 ([2]; Homo sapiens, Mast cell) greater than 10 µM.
Molecule COc1ccc(Nc2ncc(F)c(Nc3cccc(O)c3)n2)c(OC)n1 [Compound 472] has an IC50 [1, 3] of less than 10 µM and an IC50 ([2]; Homo sapiens, Mast cell) greater than 10 µM.
CNC(=O)c1ccc(Nc2ncc(F)c(N(C)c3ccc4c(c3)OCCO4)n2)cc1Cl [Compound 473, N2-[3-Chloro-4-(N-methylamino)carbonylphenyl]-N4-(3,4-ethylenedioxyphenyl)-5-fluoro-N4-methyl-2,4-pyrimidinediamine] showed an IC50 [1, 3] of less than 10 µM and an IC50 ([2]; Homo sapiens, Mast cell) greater than 10 µM.
CNC(=O)c1ccc(Nc2ncc(F)c(N(C)c3ccc(OC)c(OC)c3)n2)cc1Cl [Compound 474, N2-[3-Chloro-4-(N-methylamino)carbonylphenyl]-N4-(3,4-dimethoxyphenyl)-5-fluoro-N4-methyl-2,4-pyrimidinediamine] gave an IC50 [1, 3] of less than 10 µM and an IC50 ([2]; Homo sapiens, Mast cell) greater than 10 µM.
CNC(=O)c1cc(Nc2nc(Nc3cc(OC)cc(OC)c3)ncc2F)ccc1Cl [Compound 475, N4-[4-Chloro-3-(N-methylamino)carbonylphenyl]-N2-(3,5-dimethoxyphenyl)-5-fluoro-2,4-pyrimidinediamine] gave an IC50 [1, 3] of less than 10 µM, an IC50 [1, 4] of less than 10 µM and an IC50 ([2]; Homo sapiens, Mast cell) greater than 10 µM.
With CNC(=O)c1cc(Nc2nc(Nc3cc(C)cc(C)c3)ncc2F)ccc1Cl [Compound 476, N4-[4-Chloro-3-(N-methylamino)carbonylphenyl]-N2-(3,5-dimethylphenyl)-5-fluoro-2,4-pyrimidinediamine] the IC50 [1, 3] was less than 10 µM, the IC50 [1, 4] was less than 10 µM and the IC50 ([2]; Homo sapiens, Mast cell) was greater than 10 µM.
Work on CNC(=O)COc1cccc(Nc2ncc(F)c(Nc3ccc(Cl)c(C(=O)NC)c3)n2)c1 [Compound 477, N4-[4-Chloro-3-(N-methylamino)carbonylphenyl]-5-fluoro-N2-[3-(N-methylamino)carbonylmethyleneoxyphenyl]-2,4-pyrimidinediamine] yielded an IC50 [1, 5] of less than 10 µM, an IC50 [1, 6] of less than 10 µM and an IC50 [2] greater than 10 µM.
CNC(=O)c1ccc(Nc2ncc(F)c(Nc3ccc(Cl)c(C(=O)NC)c3)n2)cc1Cl [Compound 478, N2-[3-Chloro-4-(N-methylamino)carbonylphenyl]-N4-[4-chloro-3-(N-methylamino)carbonylphenyl]-5-fluoro-2,4-pyrimidinediamine] was tested, and the IC50 [1, 3] was less than 10 µM and the IC50 ([2]; Homo sapiens, Mast cell) was greater than 10 µM.
In the case of CNC(=O)c1cc(Nc2ccnc(Nc3ccc4cc[nH]c4c3)n2)ccc1Cl [Compound 479, N4-[4-Chloro-3-(N-methylamino)carbonylphenyl]-N2-(indol-6-yl)-2,4-pyrimidinediamine], the IC50 [1, 3] is reported as less than 10 µM and the IC50 ([2]; Homo sapiens, Mast cell) is reported as greater than 10 µM.
COc1ncc(F)c(N(C)c2ccc3c(c2)OCCO3)n1 [Compound 480] gave an IC50 [1, 3] greater than 10 µM and an IC50 ([2]; Homo sapiens, Mast cell) greater than 10 µM.
In the case of CNC(=O)c1ccc(Nc2nc(Nc3cc(OC)cc(OC)c3)ncc2F)cc1Cl [Compound 481], the IC50 [1, 3] is reported as less than 10 µM, the IC50 [1, 4] is reported as less than 10 µM and the IC50 ([2]; Homo sapiens, Mast cell) is reported as greater than 10 µM.
Work on CNC(=O)c1ccc(Nc2nc(Nc3cc(C)cc(C)c3)ncc2F)cc1Cl [Compound 482] yielded an IC50 [1, 3] of less than 10 µM, an IC50 [1, 4] of less than 10 µM and an IC50 ([2]; Homo sapiens, Mast cell) greater than 10 µM.
Nc1cccc(Nc2nc(Cl)ncc2F)n1 [Compound 486, N4-(2-Aminopyrid-6-yl)-2-chloro-5-fluoro-4-pyrimidineamine] was tested, and the IC50 [1, 3] was greater than 10 µM and the IC50 ([2]; Homo sapiens, Mast cell) was greater than 10 µM.
For CN(c1ccc2c(c1)OCCO2)c1nc(N)ncc1F [Compound 487, N4-(3,4-Ethylenedioxyphenyl)-5-fluoro-N4-methyl-2,4-pyrimidinediamine], the IC50 [1, 3] was greater than 10 µM and the IC50 ([2]; Homo sapiens, Mast cell) was greater than 10 µM.
COc1cc(OC)cc(N(C)c2nc(Cl)ncc2F)c1 [Compound 488] showed an IC50 [1, 3] of less than 10 µM and an IC50 ([2]; Homo sapiens, Mast cell) greater than 10 µM.
With CCOC(=O)c1cc2cccc(Nc3ncc(F)c(NCCO)n3)c2[nH]1 [Compound 489] the IC50 [1, 3] was greater than 10 µM and the IC50 ([2]; Homo sapiens, Mast cell) was greater than 10 µM.
For COc1ccc(N(C)c2nc(Cl)ncc2F)c(OC)n1 [Compound 490], the IC50 [1, 3] was greater than 10 µM and the IC50 ([2]; Homo sapiens, Mast cell) was greater than 10 µM.
For CNS(=O)(=O)c1ccc(Nc2ncc(F)c(Nc3ccc4c(c3)OCCO4)n2)cc1OC [Compound 493, N4-(3,4-Ethylenedioxyphenyl)-5-fluoro-N2-[4-(N-methylamino)sulfonyl-3-methoxyphenyl]-2,4-pyrimidinediamine], the IC50 [1, 3] was less than 10 µM, the IC50 [1, 4] was less than 10 µM and the IC50 ([2]; Homo sapiens, Mast cell) was greater than 10 µM.
Molecule CNS(=O)(=O)c1ccc(Nc2ncc(F)c(Nc3ccc(OC)c(OC)c3)n2)cc1OC [Compound 494, N4-(3,4-Dimethoxyphenyl)-5-fluoro-N2-[3-methoxyphenyl-4-(N-methylamino)sulfonyl]-2,4-pyrimidinediamine] has an IC50 [1, 5] of less than 10 µM, an IC50 [1, 6] of less than 10 µM and an IC50 [2] greater than 10 µM.
Work on CNS(=O)(=O)c1ccc(Nc2ncc(F)c(Nc3cc(OC)cc(OC)c3)n2)cc1OC [Compound 495, N4-(3,5-Dimethoxyphenyl)-5-fluoro-N2-[3-methoxyphenyl-4-(methylamino)sulfonyl]-2,4-pyrimidinediamine] yielded an IC50 [1, 5] of less than 10 µM and an IC50 [2] greater than 10 µM.
Molecule CNS(=O)(=O)c1ccc(Nc2ncc(F)c(Nc3ccc4c(c3)NC(=O)C(C)(C)O4)n2)cc1OC [Compound 496, N4-(2,2-Dimethyl-3-oxo-4H-benz[1,4]oxazin-6-yl)-5-fluoro-N2-[3-methoxyphenyl-4-(methylamino)sulfonyl]-2,4-pyrimidinediamine] has an IC50 [1, 5] of less than 10 µM, an IC50 [1, 6] of less than 10 µM and an IC50 [2] of less than 10 µM.
CNS(=O)(=O)c1ccc(Nc2ncc(F)c(Nc3ccc(Cl)c(C(F)(F)F)c3)n2)cc1OC [Compound 497, N4-(4-Chloro-3-trifluoromethylphenyl)-5-fluoro-N2-[3-methoxyphenyl-4-(methylamino)sulfonyl]-2,4-pyrimidinediamine] showed an IC50 [1, 5] of less than 10 µM, an IC50 [1, 6] of less than 10 µM and an IC50 [2] greater than 10 µM.
Work on CNS(=O)(=O)c1ccc(Nc2ncc(F)c(Nc3ccc(OC(F)(F)F)c(Cl)c3)n2)cc1OC [Compound 498, N4-(3-Chloro-4-trifluoromethoxyphenyl)-5-fluoro-N2-[4-(3-methoxyphenyl-N-methylamino)sulfonyl]-2,4-pyrimidinediamine] yielded an IC50 [1, 5] of less than 10 µM, an IC50 [1, 6] of less than 10 µM and an IC50 [2] greater than 10 µM.
In the case of CNS(=O)(=O)c1ccc(Nc2ncc(F)c(Nc3cccc(O)c3)n2)cc1OC [Compound 499, 5-Fluoro-N4-(3-hydroxyphenyl)-N2-[3-methoxyphenyl-4-(N-methylamino)sulfonyl]-2,4-pyrimidinediamine], the IC50 [1, 5] is reported as less than 10 µM, the IC50 [1, 6] is reported as less than 10 µM and the IC50 [2] is reported as greater than 10 µM.
CNc1ncc(F)c(N(C)c2ccc(OC)nc2OC)n1 [Compound 500] was tested, and the IC50 [1, 3] was greater than 10 µM and the IC50 ([2]; Homo sapiens, Mast cell) was greater than 10 µM.
Molecule CNc1ncc(F)c(N(C)c2cc(Cl)c(OC)c(Cl)c2)n1 [Compound 501] has an IC50 [1, 3] greater than 10 µM and an IC50 ([2]; Homo sapiens, Mast cell) greater than 10 µM.
Molecule CNS(=O)(=O)c1ccc(Nc2nc(Cl)ncc2F)cc1OC [Compound 502, 2-Chloro-5-fluoro-N4-[4-(N-methylamino)sulfonyl-3-methoxyphenyl]-2,4-pyrimidineamine] has an IC50 [1, 5] greater than 10 µM and an IC50 [2] greater than 10 µM.
For COc1cc(Nc2ncc(F)c(Nc3ccc(OCCO)nc3)n2)cc(OC)c1 [Compound 503, N2-(3,5-Dimethoxyphenyl)-5-fluoro-N4-[2-(2-hydroxyethyleneoxy)pyrid-5-yl]-2,4-pyrimidinediamine], the IC50 [1, 5] was less than 10 µM, the IC50 [1, 6] was less than 10 µM and the IC50 [2] was greater than 10 µM.
With Cc1cc(C)cc(Nc2ncc(F)c(Nc3ccc(OCCO)nc3)n2)c1 [Compound 504, N2-(3,5-Dimethylphenyl)-5-fluoro-N4-[2-(2-hydroxyethyleneoxy)pyrid-5-yl]-2,4-pyrimidinediamine] the IC50 [1, 5] was less than 10 µM, the IC50 [1, 6] was less than 10 µM and the IC50 [2] was greater than 10 µM.
